Measured values published in patent publication US11292782B2, “Diarylhydantoin compounds and methods of use thereof” (Nuvation Bio Inc., priority 2018, dated 2022).
Where two headings read alike, the source gives them in different places.

Legend:
Type in all cases: cell-based
Human AR [1] = target: T1, Human AR (Homo sapiens (Human), UniProt P10275); assay: AR agonist assay (GRE-LUC luciferase, transfected HEK-293 cells, test article alone); settings: HEK-293 transfected with human AR, read-out: AR Agonist IC50
T1 sequence (P10275 whole entry): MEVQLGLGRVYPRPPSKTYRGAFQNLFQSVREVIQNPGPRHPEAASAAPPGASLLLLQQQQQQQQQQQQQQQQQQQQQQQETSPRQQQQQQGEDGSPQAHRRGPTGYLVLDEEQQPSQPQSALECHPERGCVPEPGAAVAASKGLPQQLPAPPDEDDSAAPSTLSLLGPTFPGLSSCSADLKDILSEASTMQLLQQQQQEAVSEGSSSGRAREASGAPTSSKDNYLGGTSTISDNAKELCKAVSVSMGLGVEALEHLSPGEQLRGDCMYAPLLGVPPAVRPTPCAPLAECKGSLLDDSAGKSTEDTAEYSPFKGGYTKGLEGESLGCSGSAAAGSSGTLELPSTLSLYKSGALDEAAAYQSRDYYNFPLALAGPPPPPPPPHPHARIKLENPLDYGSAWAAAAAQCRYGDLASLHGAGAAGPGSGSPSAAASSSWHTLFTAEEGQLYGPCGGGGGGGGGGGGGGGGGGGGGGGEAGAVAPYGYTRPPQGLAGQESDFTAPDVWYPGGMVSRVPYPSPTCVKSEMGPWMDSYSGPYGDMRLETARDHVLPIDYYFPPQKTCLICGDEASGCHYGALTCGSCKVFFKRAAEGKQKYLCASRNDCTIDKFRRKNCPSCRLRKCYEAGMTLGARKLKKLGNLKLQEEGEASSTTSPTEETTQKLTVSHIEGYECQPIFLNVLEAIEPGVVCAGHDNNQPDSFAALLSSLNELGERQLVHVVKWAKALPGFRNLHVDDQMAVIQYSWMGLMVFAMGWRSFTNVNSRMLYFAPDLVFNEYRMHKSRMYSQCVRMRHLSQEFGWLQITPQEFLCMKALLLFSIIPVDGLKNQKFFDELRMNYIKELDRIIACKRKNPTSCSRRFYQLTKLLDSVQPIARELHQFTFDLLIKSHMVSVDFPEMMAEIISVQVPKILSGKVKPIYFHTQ
Experimental: (§1) Human AR cDNA cloned into pCMV vector, GRE-LUC, and CMV-renilla-LUC were used to transfect cells. HEK-293 cells (ATCC) were plated at 120,000 cells per well of a 24 well plate in DME+5% csFBS (Fisher Scientific, Waltham, Mass.). The cells were transfected using Lipofectamine (Life Technologies, Carlsbad, Calif.) with 0.25 μg GRE-LUC, 0.010 μg CMV-LUC (renilla luciferase) and 25 ng of the AR. […] Luciferase assay was performed 48 hrs after transfection. Firefly luciferase assay values were normalized to renilla luciferase values and were graphed using graphpad prism software (La Jolla, Calif.). […] The IC50 or EC50 values were determined using non-linear regression and […] logistics fitting.

Human AR [2] = target: T1, Human AR; assay: AR antagonist assay (GRE-LUC luciferase, transfected HEK-293 cells, with 0.1 nM R1881); settings: with 0.1 nM R1881
Experimental: as §1

GFP-AR = GFP-AR (Homo sapiens (Human), UniProt P10275)
Chain of GFP-AR (P10275 whole entry, looked up): as the sequence (P10275 whole entry) above
Experimental: COS cells plated in chamber slides in DME+5% csFBS without phenol red were transfected with […] GFP-AR using lipofectamine reagent.

GR = GR (Homo sapiens (Human), UniProt P04150); assay: GR antagonist assay (GRE-LUC luciferase, transfected COS-7 cells, with 0.1 nM dexamethasone); settings: in the presence of 0.1 nM dexamethasone; for GR antagonist assay, % of vehicle: 10 μM
Chain of GR (P04150 whole entry): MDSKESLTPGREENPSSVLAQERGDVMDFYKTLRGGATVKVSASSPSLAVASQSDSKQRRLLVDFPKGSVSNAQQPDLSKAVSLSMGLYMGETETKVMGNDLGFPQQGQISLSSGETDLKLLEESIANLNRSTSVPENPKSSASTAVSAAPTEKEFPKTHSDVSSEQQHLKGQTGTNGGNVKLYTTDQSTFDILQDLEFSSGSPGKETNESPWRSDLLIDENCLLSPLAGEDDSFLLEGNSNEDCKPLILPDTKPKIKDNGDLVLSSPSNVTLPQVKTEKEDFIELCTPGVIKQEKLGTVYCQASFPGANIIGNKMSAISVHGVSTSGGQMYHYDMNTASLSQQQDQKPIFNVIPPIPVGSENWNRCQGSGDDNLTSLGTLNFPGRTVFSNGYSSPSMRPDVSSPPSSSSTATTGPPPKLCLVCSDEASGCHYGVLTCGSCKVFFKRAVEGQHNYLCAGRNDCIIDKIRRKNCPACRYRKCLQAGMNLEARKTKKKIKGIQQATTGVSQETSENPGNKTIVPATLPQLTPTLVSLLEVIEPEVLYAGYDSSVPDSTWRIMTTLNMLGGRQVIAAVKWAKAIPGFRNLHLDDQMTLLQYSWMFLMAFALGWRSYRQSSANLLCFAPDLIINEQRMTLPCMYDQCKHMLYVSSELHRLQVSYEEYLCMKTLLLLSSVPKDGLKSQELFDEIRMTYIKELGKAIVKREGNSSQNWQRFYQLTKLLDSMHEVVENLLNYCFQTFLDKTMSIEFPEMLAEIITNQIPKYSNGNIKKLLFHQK
Experimental: COS-7 cells (ATCC, Manassas, Va.) were plated in 24 well plates in DME+5% csFBS without phenol red at 70,000 cells/well. Once the cells attached to the plates (typically after overnight incubation after plating), they were transfected in OPTIMEM medium (Life Technologies) using lipofectamine reagent (Life Technologies) with 0.25 μg GRE-LUC, 25 ng pCR3.1 GR, and 10 ng CMV-renilla LUC per well. Twenty-four hours after transfection, the cells were fed with DME+5% csFBS without phenol red (Fisher Scientific, Waltham, Mass.) and treated with the test compounds (1 pM to 10 μM dose range) in the presence of 0.1 nM dexamethasone (Sigma, St. Louis, Mo.). Sixteen to twenty-four hours after treatment, a luciferase assay was performed using the Dual Luciferase assay kit (Promega, Madison, Wis.). Firefly luciferase values were normalized to Renilla luciferase numbers.

LNCaP cells = assay: Cell proliferation assay, LNCaP (CellTiter-Glo); settings: 6 days
Experimental: (§2) LNCaP-abl (3,000 cells/well, received from Dr. Myles Brown, Dana Farber Cancer Institute), 22RV1 (1,000 cells/well), LNCaP (5,000 cells/well), or COS (3,000 cells/well) cells were plated in 96 well plates in 50 μl RPMI+10% FBS (Fisher Scientific, Waltham, Mass.). LNCaP, COS, and 22RV1 cells were obtained from ATCC. Cells were treated in RPMI+10% FBS with test articles, ranging from 1 nM to 10 μM. Three days later, viable cells (LNCaP-abl, 22RV1, and COS) were measured by CellTiter-Glo assay (Promega, Madison, Wis.). For LNCaP cells, medium containing test article was changed after 3 days of treatment, and after an additional 3 days of culture, viable cells were measured by CellTiter-Glo assay.
(§3) The LNCaP cell line is androgen responsive with AR and PSA expression. It contains a T877A mutation in the AR. The 22RV1 cell line is positive for AR and PSA with additional AR splice variants and is insensitive to androgen for cell proliferation. The LNCaP-abl cell line expresses both AR and GR but is insensitive to androgen for cell proliferation. COS-7 is used as an AR negative cell line in this experiment.

LNCaP-abl cells = assay: Cell proliferation assay, LNCaP-abl (CellTiter-Glo); settings: 72 h, 3 days; for activity at 3 µM: read-out: cell proliferation, % of vehicle at 3 μM; for activity at 10 µM: read-out: cell proliferation, % of vehicle at 10 μM
Experimental: as §2, §3

22RV1 cells = assay: Cell proliferation assay, 22RV1 (CellTiter-Glo); settings: 3 days; for cell proliferation, % of vehicle at 3 μM: 22RV1, 3 μM; for cell proliferation, % of vehicle at 10 μM: 22RV1, 10 μM
Experimental: as §2, §3

COS-7 cells = assay: Cell proliferation assay, COS-7 (CellTiter-Glo); settings: 3 days; for cell proliferation, % of vehicle at 3 μM: COS-7, 3 μM; for cell proliferation, % of vehicle at 10 μM: COS-7, 10 μM
Experimental: as §2, §3

MR49F cells = assay: Cell proliferation assay, MR49F enzalutamide-resistant LNCaP cells (SRB); settings: six days
Experimental: The outer wells of the 96 well plates were not used for treatment due to potential evaporation. Cells were treated with selected doses of the compounds with the final concentration of DMSO kept at 0.1%. The cells were re-treated three days later. At the end of six days of treatment, the cells were fixed using 40% w/v trichloroacetic acid and a […] (SRB) assay was performed to determine the cell viability.

PSA gene expression = assay: AR activity assay: PSA gene expression (realtime PCR); settings: 1 and 10 μM
Experimental: (§4) LNCaP (ATCC) or LNCaP-EnzR (MR49F was received from Dr. Martin Gleave, University of British Columbia) cells were plated in 96 well plates at 15,000-20,000 cells/well in RPMI+1% csFBS without phenol red. Cells were treated 2 days after plating and harvested 18 hours after treatment (for TMPRSS2) or 24 hours after treatment (for PSA and FKBP5). RNA was isolated (cells to ct kit, Life Technologies), cDNA synthesized (cells to ct kit), and expression of TMPRSS2, PSA or FKBP5 and expression of GAPDH were measured using realtime PCR primers and probes (TaqMan probes, Life Technologies) by realtime PCR (ABI 7900, Life Technologies). Relative expression was calculated using ddct method.

FKBP5 gene expression = assay: AR activity assay: FKBP5 gene expression (realtime PCR); settings: 1 and 10 μM
Experimental: as §4

[3] = system: TMPRSS2 expression in LNCaP cells; assay: AR activity assay: TMPRSS2 gene expression in LNCaP cells (realtime PCR); settings: 1 and 10 μM, in the presence of 0.1 nM R1881
Experimental: as §4

[4] = system: TMPRSS2 expression in LNCaP-EnzR cells; assay: AR activity assay: TMPRSS2 gene expression in LNCaP-EnzR (MR49F) cells (realtime PCR); settings: enzalutamide resistant LNCaP-EnzR cells, 1 and 10 μM
Experimental: as §4

[5] = COS cells, GFP-AR, 30 min pre-treatment, then R1881 for four hours

SMILES | EC50 (Human AR [1]) [nM] | IC50 (Human AR [2]) [nM] | activity at 3 µM (LNCaP-abl cells) [%] | activity at 10 µM (LNCaP-abl cells) [%] | IC50 (GR) [nM] | further results
Cn1ccnc1C(=O)NCc1ccc(N2C(=O)N(c3ccc(C#N)c(C(F)(F)F)c3)C(=O)C2(C)C)cc1F [Compound 1] | > 10000 | 968 |  |  |  | 
Cc1ncsc1C(=O)NCc1ccc(N2C(=S)N(c3ccc(C#N)c(C(F)(F)F)c3)C(=O)C2(C)C)cc1F [Compound 9] | > 10000 | 49.1 | 89 | 27 |  | AR localization (cytoplasmic or nuclear) (GFP-AR; [5]): nuclear; GR antagonist assay, % of vehicle (GR): 41%; cell proliferation, % of vehicle at 3 μM (LNCaP cells): 55%; cell proliferation, % of vehicle at 10 μM (LNCaP cells): 21%; cell proliferation, % of vehicle at 3 μM (22RV1 cells): 77%; cell proliferation, % of vehicle at 10 μM (22RV1 cells): 41%; cell proliferation, % of vehicle at 3 μM (COS-7 cells): 92%; cell proliferation, % of vehicle at 10 μM (COS-7 cells): 99%; cell proliferation, % of vehicle at 3 μM (MR49F cells; 3 μM): 53%; cell proliferation, % of vehicle at 10 μM (MR49F cells; 10 μM): 29%
C[C@]1(O)CC[C@H]2[C@@H]3CCC4=CC(=O)CCC4=C3C=C[C@@]21C [Compound R1881, reference compound] |  |  |  |  |  | AR localization (cytoplasmic or nuclear) (GFP-AR): nuclear
CC1(C)C(=O)N(c2ccc(C#N)c(C(F)(F)F)c2)C(=S)N1c1ccc(CNC(=O)c2ccccn2)c(F)c1 [Compound 8] | > 10000 | 47.2 | 83 | 62 |  | PSA gene expression (PSA gene expression): significant inhibition; FKBP5 gene expression (FKBP5 gene expression): significant inhibition; AR localization (cytoplasmic or nuclear) (GFP-AR; [5]): nuclear; GR antagonist assay, % of vehicle (GR): 52%; cell proliferation, % of vehicle at 3 μM (LNCaP cells): 63%; cell proliferation, % of vehicle at 10 μM (LNCaP cells): 19%; cell proliferation, % of vehicle at 3 μM (22RV1 cells): 87%; cell proliferation, % of vehicle at 10 μM (22RV1 cells): 90%; cell proliferation, % of vehicle at 3 μM (COS-7 cells): 99%; cell proliferation, % of vehicle at 10 μM (COS-7 cells): 91%
CC1(C)C(=O)N(c2cnc(C#N)c(C(F)(F)F)c2)C(=S)N1c1ccc(CNC(=O)c2cncs2)c(Cl)c1 [Compound 36] |  | 580 | 82 | 59 | > 10000 | 
CC(C)C(=O)NCc1ccc(N2C(=S)N(c3ccc(C#N)c(C(F)(F)F)c3)C(=O)C2(C)C)cc1F [Compound 7] |  | 180 | 67 | 73 | > 10000 | 
Cc1ncsc1C(=O)NCc1ccc(N2C(=S)N(c3ccc(C#N)c(C(F)(F)F)c3)C(=O)C23CCC3)cc1F [Compound 65] |  | 64 | 94 | 83 | > 10000 | 
CNC(=O)c1ccc(N2C(=S)N(c3ccc(C#N)c(C(F)(F)F)c3)C(=O)C2(C)C)cc1F [Enzalutamide, enzalutamide] |  |  |  |  |  | TMPRSS2 expression [3]: inhibitory effects; TMPRSS2 expression [4]: failed to reduce TMPRSS2 expression
CC1(C)C(=O)N(c2ccc(C#N)c(C(F)(F)F)c2)C(=S)N1c1ccc(CNC(=O)C2CC2)c(F)c1 [Compound 11] |  | 120 | 103 | 79 | > 10000 | 
CC(C)(C)C(=O)NCc1ccc(N2C(=S)N(c3ccc(C#N)c(C(F)(F)F)c3)C(=O)C2(C)C)cc1F [Compound 6] | > 10000 | 778 | 79 | 101 | > 10000 | 
CC1(C)C(=O)N(c2ccc(C#N)c(C(F)(F)F)c2)C(=S)N1c1ccc(CNC(=O)c2cncs2)c(Cl)c1 [Compound 25] |  | 99 | 96 | 64 | > 10000 | 
